Results on 25 molecules are retold here after patent US8999982B2, “Pharmaceutically active compounds as Axl inhibitors” (Lead Discovery Center GmbH, priority 2010, dated 2015).

The target of assay [1] is T1, Axl (Homo sapiens (Human), UniProt P30530). Briefly: Cellular Axl phosphorylation assay. The assay is classed as cell-based. The note with it: HEK293 cells transfected with Axl cDNA, 1 hour incubation. A digest of the protocol: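 Transiently Axl-transfected HEK293 cells, with a vector-only negative control, were treated with compound for 1 hour on the day after medium change. Axl phosphorylation was quantified by mesoscale detection.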
T1 sequence (P30530 26-894): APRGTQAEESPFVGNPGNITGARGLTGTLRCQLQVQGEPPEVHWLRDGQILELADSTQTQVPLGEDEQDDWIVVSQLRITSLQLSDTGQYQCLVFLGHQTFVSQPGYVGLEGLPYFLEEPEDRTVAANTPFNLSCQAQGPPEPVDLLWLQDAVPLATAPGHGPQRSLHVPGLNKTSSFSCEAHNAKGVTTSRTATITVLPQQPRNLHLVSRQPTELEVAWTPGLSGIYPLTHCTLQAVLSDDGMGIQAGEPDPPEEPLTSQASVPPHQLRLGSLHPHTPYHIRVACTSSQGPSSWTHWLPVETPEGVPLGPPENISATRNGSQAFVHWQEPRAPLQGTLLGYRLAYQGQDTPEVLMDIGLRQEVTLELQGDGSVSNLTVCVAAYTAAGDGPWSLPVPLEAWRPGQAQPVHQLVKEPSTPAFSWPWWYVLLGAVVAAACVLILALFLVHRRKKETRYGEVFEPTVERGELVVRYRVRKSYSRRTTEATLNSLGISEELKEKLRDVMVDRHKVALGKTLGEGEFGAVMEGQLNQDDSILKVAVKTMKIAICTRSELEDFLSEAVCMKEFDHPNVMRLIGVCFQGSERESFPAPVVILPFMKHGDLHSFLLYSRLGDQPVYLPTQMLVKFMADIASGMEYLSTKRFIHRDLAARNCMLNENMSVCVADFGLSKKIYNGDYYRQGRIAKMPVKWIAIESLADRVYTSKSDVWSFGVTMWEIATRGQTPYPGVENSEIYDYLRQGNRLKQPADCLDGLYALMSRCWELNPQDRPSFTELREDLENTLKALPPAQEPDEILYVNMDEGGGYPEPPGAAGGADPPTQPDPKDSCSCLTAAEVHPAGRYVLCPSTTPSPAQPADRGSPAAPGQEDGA

The target of assay [2] is T1, Axl. Briefly: Axl binding assay. The protocol:
Binding of the tracer to the kinase is detected using an EU-labeled anti-tag antibody. […] Binding of an inhibitor to the kinase competes for binding with the tracer, resulting in a loss of FRET-signal. At first a compound according to formula (I) was diluted in 20 mM Hepes pH 8.0, 1 mM DTT, 10 mM MgCl2 and 0.01% Brij35.

One may read the IC50 as the concentration needed to halve the response being measured. Read a high IC50 as a need for much substance. As for `CCOc1cn(-c2ccc(F)cc2Cl)nc1C(=O)Nc1ccc(Oc2ccnc3cc(OCCCN4CCNCC4)c(OC)cc23)c(F)c1` [Example 68, 1-(2-chloro-4-fluoro-phenyl)-4-ethoxy-N-[3-fluoro-4-[[6-methoxy-7-(3-piperazin-1-ylpropoxy)-4-quinolyl]oxy]phenyl]pyrazole-3-carboxamide], the IC50 at Axl [1] and on Axl [2] was below 500 nM in each case.
On to `CCOc1cn(-c2ccc(F)cc2C)nc1C(=O)Nc1ccc(Oc2ccnc3cc(OCCCN4CCNCC4)c(OC)cc23)c(F)c1` [Example 69, 4-ethoxy-N-[3-fluoro-4-[[6-methoxy-7-(3-piperazin-1-ylpropoxy)-4-quinolyl]oxy)phenyl]-1-(4-fluoro-2-methyl-phenyl)pyrazole-3-carboxamide], for which the IC50 against Axl [1] and at Axl [2] was below 500 nM each time.
With `COCCOc1cn(-c2ccc(F)cc2)nc1C(=O)Nc1ccc(Oc2ccnc3cc(OCCCN4CCNCC4)c(OC)cc23)c(F)c1` [Example 70, N-[3-fluoro-4-[[6-methoxy-7-(3-piperazin-1-ylpropoxy)-4-quinolyl]oxy]phenyl]-1-(4-fluorophenyl)-4-(2-methoxyethoxy)pyrazole-3-carboxamide], the IC50 against Axl [1] and on Axl [2] was below 500 nM each time.
Consider `COc1cc2c(Oc3ccc(NC(=O)c4nn(-c5ccc(F)cc5)cc4OCC4CCN(C)C4)cc3F)ccnc2cc1OCCCN1CCNCC1` (centres unmarked) [Example 71, N-[3-fluoro-4-[[6-methoxy-7-(3-piperazin-1-ylpropoxy)-4-quinolyl]oxy]phenyl]-1-(4-fluorophenyl)-4-[(1-methylpyrrolidin-3-yl)methoxy]pyrazole-3-carboxamide], for which the figures for the IC50 against Axl [1] and on Axl [2] were 500 to 5000 nM and below 500 nM, respectively.
Taken in the same sequence, the figures for `COc1cc2c(Oc3ccc(NC(=O)c4csc(-c5ccccc5)n4)cc3F)ccnc2cc1OCCCN1CCNCC1` [Example 72, N-[3-fluoro-4-[[6-methoxy-7-(3-piperazin-1-ylpropoxy)-4-quinolyl]oxy]phenyl]-2-phenyl-thiazole-4-carboxamide] were below 500 nM and below 500 nM.
For `COc1cc2c(Oc3ccc(NC(=O)c4nn(-c5ccc(F)cc5)cc4OC)cc3F)ccnc2cc1OCC1CCNCC1` [Example 73, N-[3-fluoro-4-[[6-methoxy-7-(4-piperidylmethoxy)-4-quinolyl]oxy]phenyl]-1-(4-fluorophenyl)-4-methoxy-pyrazole-3-carboxamide], the IC50 at Axl [1] and on Axl [2] was below 500 nM in each case.
In the case of `CCOc1cn(-c2ccc(F)cc2C)nc1C(=O)Nc1ccc(Oc2ccnc3cc(OCC4CCNCC4)c(OC)cc23)c(F)c1` [Example 74, 4-ethoxy-N-[3-fluoro-4-[[6-methoxy-7-(4-piperidylmethoxy)-4-quinolyl]oxy]phenyl]-1-(4-fluoro-2-methyl-phenyl)pyrazole-3-carboxamide], the half-inhibitory concentration (IC50) on Axl [1] and at Axl [2] was below 500 nM throughout.
Take `COc1cc2c(Oc3ccc(NC(=O)c4nn(-c5ccc(F)cc5)cc4OCC4CC4)cc3F)ccnc2cc1OCC1CCNCC1` [Example 75, 4-(cyclopropylmethoxy)-N-[3-fluoro-4-[[6-methoxy-7-(4-piperidylmethoxy)-4-quinolyl]oxy]phenyl]-1-(4-fluorophenyl)pyrazole-3-carboxamide]: the IC50 against Axl [1] and at Axl [2] was below 500 nM throughout.
As to `COc1cc2c(Oc3ccc(NC(=O)c4nn(-c5ccc(F)cc5)cc4Br)cc3F)ccnc2cc1OCC1CCNCC1` [Example 76, 4-bromo-N-[3-fluoro-4-[[6-methoxy-7-(4-piperidylmethoxy)-4-quinolyl]oxy]phenyl]-1-(4-fluorophenyl)pyrazole-3-carboxamide], the IC50 against Axl [1] and at Axl [2] was below 500 nM each time.
Consider `COc1cc2c(Oc3ccc(NC(=O)c4nn(-c5ccc(F)cc5)cc4OCc4ccc(F)cc4)cc3F)ccnc2cc1OCC1CCNCC1` [Example 77, N-[3-fluoro-4-[[6-methoxy-7-(4-piperidylmethoxy)-4-quinolyl]oxy]phenyl]-1-(4-fluorophenyl)-4-[(4-fluorophenyl)methoxy]pyrazole-3-carboxamide], for which the IC50 at Axl [1] and on Axl [2] was below 500 nM in each case.
Regarding `COc1cc2c(Oc3ccc(NC(=O)c4cc(C)n(C(C)(C)C)n4)cc3F)ccnc2cc1OCC1CCNCC1` [Example 78, 1-tert-butyl-N-[3-fluoro-4-[[6-methoxy-7-(4-piperidylmethoxy)-4-quinolyl]oxy]phenyl]-5-methyl-pyrazole-3-carboxamide], the IC50 against Axl [1] and on Axl [2] was below 500 nM throughout.
On to `COc1cc2c(Oc3ccc(NC(=O)c4nc(-c5ccccc5)oc4C)cc3F)ccnc2cc1OCC1CCNCC1` [Example 80, N-[3-fluoro-4-[[6-methoxy-7-(4-piperidylmethoxy)-4-quinolyl]oxy]phenyl]-5-methyl-2-phenyl-oxazole-4-carboxamide], for which the IC50 on Axl [1] and at Axl [2] was below 500 nM each time.
`COc1cc2c(Oc3ccc(NC(=O)c4csc(-c5ccccc5)n4)cc3F)ccnc2cc1OCC1CCNCC1` [Example 81, N-[3-fluoro-4-[[6-methoxy-7-(4-piperidylmethoxy)-4-quinolyl]oxy]phenyl]-2-phenyl-thiazole-4-carboxamide]: the IC50 at Axl [1] was 500 to 5000 nM; at Axl [2], below 500 nM.
Taken in the same sequence, the figures for `CCOc1cn(-c2ccc(F)cc2C)nc1C(=O)Nc1ccc(Oc2ccnc3cc(OCC4CCN(CC)CC4)c(OC)cc23)c(F)c1` [Example 82, 4-ethoxy-N-[4-[[7-[(1-ethyl-4-piperidyl)methoxy]-6-methoxy-4-quinolyl]oxy]-3-fluoro-phenyl]-1-(4-fluoro-2-methyl-phenyl)pyrazole-3-carboxamide] were below 500 nM and below 500 nM.
In the case of `CCOc1cn(-c2ccc(F)cc2C)nc1C(=O)Nc1ccc(Oc2ccnc3cc(OCC4CCN(CC(C)C)CC4)c(OC)cc23)c(F)c1` [Example 83, 4-ethoxy-N-[3-fluoro-4-[[7-[(1-isobutyl-4-piperidyl)methoxy]-6-methoxy-4-quinolyl]oxy]phenyl]-1-(4-fluoro-2-methyl-phenyl)pyrazole-3-carboxamide], the IC50 against Axl [1] and on Axl [2] was below 500 nM in each case.
Consider `CCOc1cn(-c2ccc(F)cc2)nc1C(=O)Nc1ccc(Oc2ccnc3cc(OC)c(OC)cc23)cn1` [Example 84, N-[5-[(6,7-dimethoxy-4-quinolyl)oxy]-2-pyridyl]-4-ethoxy-1-(4-fluorophenyl)pyrazole-3-carboxamide], for which the IC50 at Axl [1] and on Axl [2] was below 500 nM each time.
For `CCOc1cn(-c2ccc(F)cc2C)nc1C(=O)Nc1ccc(Oc2ccnc3cc(OC)c(OC)cc23)cn1` [Example 85, N-[5-[(6,7-dimethoxy-4-quinolyl)oxy]-2-pyridyl]-4-ethoxy-1-(4-fluoro-2-methyl-phenyl)pyrazole-3-carboxamide], the IC50 against Axl [1] and at Axl [2] was below 500 nM throughout.
`CCOc1cn(-c2ccc(F)cc2Cl)nc1C(=O)Nc1ccc(Oc2ccnc3cc(OC)c(OC)cc23)cn1` [Example 86, 1-(2-chloro-4-fluoro-phenyl)-N-[5-[(6,7-dimethoxy-4-quinolyl)oxy]-2-pyridyl]-4-ethoxy-pyrazole-3-carboxamide]: the IC50 against Axl [1] and on Axl [2] was below 500 nM each time.
For the molecule `COc1cc2nccc(Oc3ccc(NC(=O)c4nn(-c5ccc(F)cc5)cc4CCN(C)C)nc3)c2cc1OC` [Example 87, N-[5-[(6,7-dimethoxy-4-quinolyl)oxy]-2-pyridyl]-4-(2-dimethylaminoethyl)-1-(4-fluorophenyl)pyrazole-3-carboxamide], the IC50 is below 500 nM against Axl [1] and 500 to 5000 nM at Axl [2].
For `CCOc1cn(-c2ccc(OC)cc2C)nc1C(=O)Nc1ccc(Oc2ccnc3cc(OC)c(OC)cc23)cn1` [Example 89, N-(5-((6,7-dimethoxyquinolin-4-yl)oxy)pyridin-2-yl)-4-ethoxy-1-(4-methoxy-2-methylphenyl)-1H-pyrazole-3-carboxamide], the 50% inhibitory concentration (IC50) against Axl [1] and on Axl [2] was below 500 nM each time.
As for `CCOc1cn(-c2cccc([N+](=O)[O-])c2)nc1C(=O)Nc1ccc(Oc2ccnc3cc(OC)c(OC)cc23)c(F)c1` [Example 90, N-(4-((6,7-dimethoxyquinolin-4-yl)oxy)-3-fluorophenyl)-4-ethoxy-1-(3-nitrophenyl)-1H-pyrazole-3-carboxamide], the half-maximal inhibitory concentration (IC50) at Axl [1] and at Axl [2] was below 500 nM each time.
Regarding `CCOc1cn(-c2ccc(OC)cc2C)nc1C(=O)Nc1ccc(Oc2ccnc3cc(OC)c(OC)cc23)c(F)c1` [Example 91, N-(4-((6,7-dimethoxyquinolin-4-yl)oxy)-3-fluorophenyl)-4-ethoxy-1-(4-methoxy-2-methylphenyl)-1H-pyrazole-3-carboxamide], the IC50 on Axl [1] and on Axl [2] was below 500 nM in each case.
For `CCOc1cn(-c2cccc([N+](=O)[O-])c2)nc1C(=O)Nc1ccc(Oc2ccnc3cc(OC)c(OC)cc23)cn1` [Example 92, N-(5-((6,7-dimethoxyquinolin-4-yl)oxy)pyridin-2-yl)-4-ethoxy-1-(3-nitrophenyl)-1H-pyrazole-3-carboxamide], the IC50 at Axl [1] and on Axl [2] was below 500 nM each time.
Turning to `CCOc1cn(-c2ccc(F)cc2C)nc1C(=O)Nc1ccc(Oc2ccnc3cc(OC)c(OC)cc23)cc1OC` [Example 94, N-(4-((6,7-dimethoxyquinolin-4-yl)oxy)-2-methoxyphenyl)-4-ethoxy-1-(4-fluoro-2-methylphenyl)-1H-pyrazole-3-carboxamide], the IC50 at Axl [1] and on Axl [2] was below 500 nM throughout.
`CCOc1cn(-c2ccc(F)cc2C)nc1C(=O)Nc1ccc(Oc2ccnc3cc(OC)c(OC)cc23)cc1C` [Example 95, N-(4-((6,7-dimethoxyquinolin-4-yl)oxy)-2-methylphenyl)-4-ethoxy-1-(4-fluoro-2-methylphenyl)-1H-pyrazole-3-carboxamide]: the IC50 on Axl [1] is 500 to 5000 nM; at Axl [2], below 500 nM.
